5 compounds from patent publication EP0790996B1, “PYRIDAZINOQUINOLINE COMPOUNDS” (AstraZeneca AB, priority 1994, dated 1996) can be followed below.

Where two headings read alike, the source gives them in different places.

Broadly, the IC50 is the concentration at which inhibition is half-maximal. Low values mean inhibition by little substance, high ones a need for much substance.

Experiment [1] concerns NMDA-induced excitatory response of red nucleus cells. Nature of the experiment: Red nucleus test (Test B). In kind it is in vivo, Rats. The note with it: Rattus norvegicus. Here is the method:
The purpose of this test is to determine the effects of intravenously administered glycine antagonists on the NMDA-induced excitatory response of red nucleus cells.
The procedure for the red nucleus test is as follows. Rats are anesthetized with chloral hydrate (400 mg/kg ip) and the femoral vein is catheterized for iv drug administration. Five-barrel micropipettes are stereotaxically positioned in the red nucleus. Typically, three to four of the five barrels are filled as follows: the recording barrel with 2M potassium citrate, the current balancing barrel with 4M NaCl, the drug barrel with 25mM NMDA, and another drug barrel with 2.5mM quisqualic acid (QA is only used in selectivity studies). NMDA is iontophoretically applied with an ejection current that is adjusted depending on the sensitivity of each individual red nucleus cell. The NMDA is cycled on and off (usually 30 - 60 sec. on and 60 - 120 sec. off) and the firing rate of the cell during each period is recorded. Once the baseline firing rate of the cell has been established, the test drug is administered iv. The effect of the drug on the NMDA-induced excitatory response of the red nucleus cell can be both qualitatively and quantitatively evaluated from the recordings and the raw data accumulated.

Experiment [2] addresses T1, glycine receptor of the NMDA receptor complex (Rattus norvegicus, UniProt P35439).
T1 construct: Freshly dissected cortices and hippocampi are homogenized in 0.32 M sucrose; from tissue; host or cells: rat cerebral cortex and hippocampus synaptic membranes
Nature of the experiment: [3H]-glycine binding assay (Test A). Also noted: species or system Sprague-Dawley rats. The note with it: 20 nanomolar [3H]-glycine, rat synaptic membranes, pH 7.1, 30 minutes at 4 °C. The procedure: In the [^3H]-glycine binding assay, neuronal synaptic membranes are prepared from adult (about 250 g) male Sprague-Dawley rats. Freshly dissected cortices and hippocampi are homogenized in 0.32 M sucrose (110 mg/mL). Synaptosomes are isolated by centrifugation (1000 xg, 10 min), the supernatant is pelleted (20,000 xg, 20 min) and resuspended in double-distilled water. The suspension was centrifuged for 20 minutes at 8,000 xg. The resulting […] and buffy coat are washed twice (48,000 xg, 10 mins, resuspension in double-deionized water). The final pellet is quickly frozen (dry ice/ethanol bath) under double-deionized water and stored at -70 °C.
On the day of the experiment, thawed synaptic membranes are homogenized with a Brinkmann Polytron (tm, Brinkmann Instruments, Westbury, N.Y.) tissue homogenizer in 50 millimolar tris(hydroxymethyl)aminomethane citrate, pH 7.1. The membranes are incubated with 0.04% Sufact-AMPS X100 (tm, Pierce, Rockford, IL) in buffer for 20 minutes at 37 °C and washed six times by centrifugation (48,000 xg, 10 min) and resuspended in buffer. The final pellet is homogenized at 200 mg wet weight/mL of the buffer for the binding assay.
For [^3H]-glycine binding at the N-methyl-D-aspartate receptor, 20 nanomolar [^3H]-glycine (40-60 Ci/mmol, New England Nuclear, Boston, MA) is incubated with the membranes suspended in 50 millimolar tris (hydroxymethyl)aminomethane citrate, pH 7.1 for 30 minutes at 4 °C. Glycine, 1 millimolar, is used to define the nonspecific binding. Bound [^3H]-glycine is isolated from free using a Brandel (Biomedical Research and Development Laboratories, Gaithersburg, MD) cell harvester for vacuum filtration over glass fiber filters (Whatman GF/B from Brandel, Gaithersburg, MD) presoaked in 0.025% polyethylenimine. The samples retained on the glass fiber filters are rinsed 3 times with a total of 2.5 mL ice cold buffer. Radioactivity is estimated by liquid scintillation counting. IC50 values are obtained from a least-squares regression of a logit-log transformation of the data. […]

Another experiment concerns Male SHR rats. Nature of the experiment: Rat Middle Cerebral Artery test (Test C), permanent MCA occlusion. Format: in vivo. Particulars: 24 hours after MCA/common carotid artery occlusion. The procedure: Male SHR rats weighing 280-320 g are used for these studies. The method used for permanent middle cerebral artery (MCA) occlusion is as described by Brint et al (1988). […] Following occlusions, drugs are administered intravenously via jugular catheter. Twenty-four hours after MCA/common carotid artery occlusion, the animals are sacrificed and their brains quickly removed. Coronal sections of 1 mm thickness are cut using a vibratome and stained with 2,3,5, triphenyl, 2H-tetrazolium chloride (TTC) dye. Following staining, necrotic tissue is readily distinguished from the intact brain and the area of infarcted cortex can be traced on an image analyzer. The infarct volume for each section is quantified with an image analyzer, and the total infarct volume is calculated with a program that summed all interval volume. See S. Brint et al. J. Cerebral Blood Flow 8:474-485 (1988). The statistical analysis of the difference between the volume of ischemic damage in the vehicle control and drug-treated animals is analyzed by student's-t-test. […] For example, the compound of example 145 at an I.V. dose of 10 mgs/kg/hr caused an infarct % volume change of -42% while a 5.0 mg/kg/hr I.V. dosage caused a -8% reduction.

Regarding `NC1CCN(O)C1=O` (racemic) [HA-966], the ED50 in experiment [1] (reference agents, intravenous, anesthetized rats, read-out: ID50 (the source's name)) came to 7.9 mg/kg.
As to `C/C(=C\C(N)C(=O)O)CP(=O)(O)O` (centres unmarked) [CGP 37849], the ED50 in experiment [1] (iv, read-out: ID50) was 1.7 mg/kg.
On to `Cc1ccc(-n2nc(O)c3c(c2=O)Cc2ccc(Cl)cc2N3)cc1` [Example 145, 7-Chloro-4-hydroxy-5,10-dihydro-2-(4'-methylphenyl)pyridazino[4,5-b]-quinoline-1-one], for which, in experiment [2], the IC50 is 45 nM. Further, in experiment [1] (as the meglumine salt (N=5), administered iv, read-out: ID50 (the source's name)), the ED50 came out at 6.54 mg/kg. The figures for the “infarct % volume change” value in the experiment on Male SHR rats (5.0 mg/kg/hr I.V. dosage) and in the experiment with Male SHR rats (I.V. dose of 10 mgs/kg/hr) were -8% and -42%, respectively.
The compound `O=c1c2c(c(O)nn1-c1ccccc1)Nc1cc(Cl)ccc1C2` [Example 147, 7-chloro-4-hydroxy-2-phenyl-5,10-dihydro-2H-pyridazino [4,5-b]quinolin-1-one] returned an IC50 in experiment [2] of 17 nM.
On to `COc1ccc(-n2nc(O)c3c(c2=O)Cc2ccc(Cl)cc2N3)cc1` [Example 148, 7-chloro-4-hydoxy-2-(4'-methoxyphenyl)-5,10-dihydro-2H-pyridazino[4,5-b]quinoline-1-one], for which the IC50 in experiment [2] was 440 nM.
